Source: patent US7070965B1, “Small molecule anticancer compounds and related production process” (priority 1998, dated 2006)
Entries after “also recorded” stand apart in the source; their conditions may differ.

Key:
[1] = system: K562 leukemia cell line; experiment: DNA fragmentation gel electrophoresis; assay type: cell-based, human; settings: 60 μg/ml
Protocol: The gel electrophoresis assay was used for the detection of apoptosis-specific internucleosonal DNA degradation in these cells. […] After centrifuged at 14,000 RPM for 20 min at 4° C., the supernatants were transferred to new tubes and treated with RNase and proteinase K respectively. Supernatants were extracted with phenol/chloroform twice, and fragmented DNA was precipitated in ethanol. Samples were electrophoresed in a 1.5% agarose gel in 1× TAE buffer. The gel was stained with ethidium bromide and destained with distilled water. The fragmented DNA was then visualized under UV light.

[2] = system: DU145 cancer cells; experiment: In situ cell death detection, POD; assay type: cell-based, human; settings: 60 μg/ml, 8 hours
Text: In Situ Cell Death Detection Kit, POD (Mannheim Boehringer GmbH) was used to detect the individual apoptotic cells. Cleavage of genomic DNA during apoptosis may yield double-stranded, low molecular weight DNA fragments as well as single strand breaks in high molecular weight DNA. Those DNA strand breaks can be identified by labeling free 3′-OH termini with modified nucleotides in an enzymatic reaction. In this kit terminal deoxynucleotidyl transferase (TdT) is used to label free 3′-OH ends in genomic DNA with fluorescein-dUTP. The incorporated fluorescein is visualized under fluorescence microscope directly. The incorporated fluorescein can also bind to anti-fluorescein antibody POD and be detected by substrate reaction. Stained cells can be analyzed under light microscope.
H1688, K-562 and DU145 human cancer cells and normal human PBLs were added with POD and incubated 30 min at 37° C., washed three times with PBS, then reacted with substrate AEC and incubated for 10 min at room temperature. The cells were analyzed under light microscope. […] It is evidenced that iso-C15 induces apoptosis of cancer cells but not normal human cells.

[3] = system: K562 leukemia cells; experiment: Apoptosis morphology, transmission electron microscope; assay type: cell-based, human; settings: 60 μg/ml, 4 hours
Protocol: Human cancer cell lines DU-145 (prostate cancer), K562 (leukemia), HCT116 (colon cancer), H1688 (lung cancer), SUN423 (hepatocarcinoma), MCF7 (breast cancer), CRL-1687 (pancreatic cancer), and SUN-1 (gastric cancer) were obtained from American Type Culture Collection (ATCC). 30 ml blood was collected from a health person and normal peripheral mononuclear cells were separated by Ficoll separation solution (Sigma). All cells were maintained in RPMI 1640, DMEM, or McCoy medium supplemented with 10% FCS, […] streptomycin and 100 u/ml penicillin. Normal human peripheral mononuclear cells, K562 and SUN-1 were suspended cells. After spinning at 1,500 RPM for 5 min, supernatants were discharged and cells were resuspended and expended in fresh medium. The other tumor cell lines were adherent cells and were dispersed with 0.05% trypsin/0.01% EDTA (Irvine Scientific, CA) for expansion. Cells were seeded in T75 flasks at 2×10^6 cells/flask in culture medium supplemented with 10% fetal bovine serum and incubated overnight at 37° C. with 5% CO2. The adherent cells attached to the plate were striped with disposable cell scrapers (Fisher Scientific) after treated either with 1% iso-C15, anteiso-C15 or control solution for 1, 2, 4, 8 and 24 hours and then combined with respective float cells. […]

[4] = system: DMBA-induced mammary cancer; experiment: Chemoprevention of DMBA-induced mammary carcinogenesis in rats; assay type: in vivo, Sprague-Dawley rats; settings: 0.5 ml of 0.7% solution intragastric, five times a week, twenty weeks after DMBA
Protocol: 13-methyltetradecanoic acid (iso-C15) was prepared by dissolving in NaOH solution and then in 0.35% Tween 80 with pH 7.5.
Fifty female Sprague-Dawley rats were maintained on laboratory chow. At 50 days of age, rats were given a single dose (5 mg) of DMBA (Sigma Chemical Co., St. Louis. Mo.) via an intragastric tube. Seven days after DMBA administration, the rats were randomly divided into two groups of 25. Each rat in the control group was given 0.5 ml of 0.35% Tween 80 five times a week via an intragastric tube throughout the experiment, while each in the test group was given 0.5 ml iso-C15 solution of concentration 0.7%, five times a week. Food and water were available ad libitum. Twenty weeks after DMBA administration, all rats were scarified, and all palpable tumors were removed.

[5] = Human clinical studies on the safety of iso-C15; assay type: in vivo
Protocol: Chemically synthesized iso-C15 of 99.8% purity were prepared in 0.20 g capsules. Six healthy adult volunteers (4 male, 2 female) of average age 35.6 were divided into three groups, and orally received iso-C15 capsules for thirty days. Low dose group: one case, 0.6 g daily; middle dose group: two cases, 1.2 g daily; high dose group: three cases, 1.8 g daily. The examinations were carried out before, during and after experiment, including physical examinations, blood and urine routine examinations, function of heart, liver and kidney, X-ray radioscopy of lung and subjective symptom.

[6] = Determination of LD50; assay type: in vivo
Protocol: 13-methyltetradecanoic acid (iso-C15) purchased from Sigma (St. Louis, Mo.) was prepared by dissolving in NaOH solution and then in 0.35% Tween 80 with pH7.5.
ICR mice weighing 20.5–22.5 g of both sexes were treated with iso-C15 i.p. qd×3 in test groups and with solvent of same dose as in a control group. The doses ranged from 10 to 800 mg/kg of iso-C15 and two mice were included in each dose group (10 mg/kg, 20 mg/kg, 40 mg/kg, 80 mg/kg, 160 mg/kg, and 800 mg/kg). The general condition of these mice were monitored daily for seven days.

[7] = 0.6–1.8 g daily oral, thirty days
[8] = after test, 0.6–1.8 g daily oral, thirty days

Structure (SMILES): CC(C)CCCCCCCCCCCC(=O)O [iso-C15, 13-methyltetradecanoic acid]
- apoptotic DNA fragmentation [1]: fragmented low molecular weight DNA bands were seen at 2 hour and were prominent at 8 hour treated
- apoptotic cells stained, POD [2]: Some stained apoptotic DU145 cancer cells were shown
- morphological changes indicative of apoptosis [3]: exhibits typical apoptotic feature
- No. of rats with tumors ([4]; 25 rats): 3
- Mean tumor weight [4]: 0.8 ± 1.3 g
- No. of tumors [4]: 4
- No. of tumors per rat [4]: 0.2 ± 0.1
- No. of tumors/tumor bearing rat [4]: 1.3 ± 0.5
- tumor incidence [4]: 12%
- toxicity / side effects in volunteers ([5]; 0.6 g–1.8 g daily for one month, oral): without any side effects; also recorded: without any toxicity effects
- heart and lung, electrocardiogram (EKG) and X-ray radioscopy [5, 7]: No abnormality
- urine routine [5, 7]: no abnormality
- ALT [5, 8]: 15.00 ± 10.33 μ/L
- BUN [5, 8]: 6.47 ± 1.72 mmol/L
- GRAN [5, 8]: 3.80 ± 0.89 × 10^9
- HB [5, 8]: 128 ± 16.9 g/L
- PLT [5, 8]: 232.0 ± 52.1 × 10^9/L
- RBC [5, 8]: 4.62 ± 0.69 × 10^12/L
- WBC [5, 8]: 7.50 ± 0.71 × 10^9/L
- ALT ([5]; before test, X ± SD, 6 cases): 15.17 ± 8.70 μ/L
- BUN ([5]; before test, X ± SD, 6 cases): 6.69 ± 2.14 mmol/L
- GRAN ([5]; before test, X ± SD, 6 cases): 3.20 ± 0.59 × 10^9
- HB ([5]; before test, X ± SD, 6 cases): 122 ± 10.4 g/L
- PLT ([5]; before test, X ± SD, 6 cases): 203.0 ± 33.3 × 10^9/L
- RBC ([5]; before test, X ± SD, 6 cases): 4.64 ± 0.40 × 10^12/L
- WBC ([5]; before test, X ± SD, 6 cases): 5.80 ± 0.95 × 10^9/L
- LD50 at 7 days ([6]; both sexes, ICR, mouse, in vivo, ip): > 800 mg/kg
- mortality ([6]; i.p. qd×3, dose up to 800 mg/kg, monitored seven days): No mice died
